Assay results taken from paper PMC5592720 (Planta medica, 2013).
“And” between values parts separate entries of the source, which are not always exact repeats. Equal entries are not always repeated. Where two headings read alike, the source gives them in different places. Each block holds one compound with its values, some of them ahead of it.

Assays:
Caco-2 cell monolayers = experiment: in vitro; format: in vitro ADME, human; settings: for % Transport Absorptive direction (A–B) / % Transport Secretory direction (A–B): Caco-2 monolayers, 1% HPβCD, 2 h; for Intestinal permeability across Caco-2 monolayers (rating): relative to atenolol and propranolol
[1] = Stability in simulated gastric fluid; format: in vitro ADME; settings: for % RD of dioscin depletion / % RD of diosgenin depletion: RD = relative difference; for Degradation (depletion) in SGF: SGF pH 1.2, end of incubation (b9 prints 3-hour incubation)
[2] = Stability in simulated intestinal fluid; format: in vitro ADME; settings: for % RD of dioscin depletion / % RD of diosgenin depletion: RD = relative difference
in vitro = in vitro ADME, human; settings: human, Caco-2
[3] = Phase I metabolic stability in human liver microsomes; format: in vitro ADME; settings: pooled human liver microsomes; for Stability in HLM (Phase I): up to 180 min, words
[4] = Phase II metabolic stability in S9 fractions; format: in vitro ADME, human
CYP2D6 [5] = target: T1, CYP2D6 (Homo sapiens, UniProt P10635)
T1 sequence (P10635 whole entry): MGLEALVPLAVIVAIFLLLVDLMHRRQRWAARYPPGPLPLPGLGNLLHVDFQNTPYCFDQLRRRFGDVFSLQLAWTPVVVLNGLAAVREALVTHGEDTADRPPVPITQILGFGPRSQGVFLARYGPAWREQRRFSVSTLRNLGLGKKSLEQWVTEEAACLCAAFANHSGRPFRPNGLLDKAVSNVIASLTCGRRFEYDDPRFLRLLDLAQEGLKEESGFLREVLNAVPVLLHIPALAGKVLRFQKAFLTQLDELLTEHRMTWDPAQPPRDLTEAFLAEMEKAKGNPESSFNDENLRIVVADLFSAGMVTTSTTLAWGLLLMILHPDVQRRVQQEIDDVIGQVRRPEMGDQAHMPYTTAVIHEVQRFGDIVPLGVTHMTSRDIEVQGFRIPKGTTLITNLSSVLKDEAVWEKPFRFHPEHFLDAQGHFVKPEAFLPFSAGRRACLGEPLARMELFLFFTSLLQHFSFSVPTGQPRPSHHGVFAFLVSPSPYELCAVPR

[6] = rat, cited from earlier work
CYP2D6 [7] = target: T1, CYP2D6; experiment: biochemical
CYP3A4 = CYP3A4 (Homo sapiens, UniProt P08684); experiment: Inhibition of cytochrome P450 3A4
Sequence of CYP3A4 (P08684 whole entry): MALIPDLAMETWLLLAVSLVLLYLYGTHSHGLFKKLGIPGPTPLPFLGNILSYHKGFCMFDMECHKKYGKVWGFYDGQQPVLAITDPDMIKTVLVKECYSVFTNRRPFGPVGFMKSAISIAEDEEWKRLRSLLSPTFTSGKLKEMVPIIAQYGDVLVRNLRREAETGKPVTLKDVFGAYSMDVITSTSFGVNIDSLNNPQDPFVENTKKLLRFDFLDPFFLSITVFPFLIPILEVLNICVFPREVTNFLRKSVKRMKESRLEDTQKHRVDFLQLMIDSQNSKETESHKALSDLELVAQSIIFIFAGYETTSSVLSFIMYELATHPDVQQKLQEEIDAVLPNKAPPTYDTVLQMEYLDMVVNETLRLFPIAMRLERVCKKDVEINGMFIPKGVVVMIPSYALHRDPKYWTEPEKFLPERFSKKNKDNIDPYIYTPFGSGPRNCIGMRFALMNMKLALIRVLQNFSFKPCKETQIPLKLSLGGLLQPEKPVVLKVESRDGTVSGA

CYP1A2 [8] = target: T2, CYP1A2 (Homo sapiens, UniProt P05177); experiment: Inhibition of cytochrome P450 1A2
T2 sequence (P05177 1-516): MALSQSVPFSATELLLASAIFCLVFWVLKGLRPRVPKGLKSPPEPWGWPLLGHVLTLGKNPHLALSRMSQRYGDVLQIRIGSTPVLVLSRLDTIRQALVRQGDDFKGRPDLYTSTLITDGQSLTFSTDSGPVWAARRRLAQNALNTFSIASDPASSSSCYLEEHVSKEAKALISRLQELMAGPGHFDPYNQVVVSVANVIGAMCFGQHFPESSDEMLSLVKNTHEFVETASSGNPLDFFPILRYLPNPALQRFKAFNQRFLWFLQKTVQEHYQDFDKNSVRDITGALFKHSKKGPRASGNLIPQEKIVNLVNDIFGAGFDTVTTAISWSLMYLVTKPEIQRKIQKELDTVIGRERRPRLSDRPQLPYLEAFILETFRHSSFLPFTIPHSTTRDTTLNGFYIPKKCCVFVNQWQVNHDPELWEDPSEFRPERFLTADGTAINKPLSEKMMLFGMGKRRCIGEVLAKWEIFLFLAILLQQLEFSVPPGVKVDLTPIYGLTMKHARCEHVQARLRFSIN

CYP2C19 [9] = target: T3, CYP2C19 (Homo sapiens, UniProt P33261); experiment: Inhibition of cytochrome P450 2C19; settings: words; table prints 2C19
T3 sequence (P33261 whole entry): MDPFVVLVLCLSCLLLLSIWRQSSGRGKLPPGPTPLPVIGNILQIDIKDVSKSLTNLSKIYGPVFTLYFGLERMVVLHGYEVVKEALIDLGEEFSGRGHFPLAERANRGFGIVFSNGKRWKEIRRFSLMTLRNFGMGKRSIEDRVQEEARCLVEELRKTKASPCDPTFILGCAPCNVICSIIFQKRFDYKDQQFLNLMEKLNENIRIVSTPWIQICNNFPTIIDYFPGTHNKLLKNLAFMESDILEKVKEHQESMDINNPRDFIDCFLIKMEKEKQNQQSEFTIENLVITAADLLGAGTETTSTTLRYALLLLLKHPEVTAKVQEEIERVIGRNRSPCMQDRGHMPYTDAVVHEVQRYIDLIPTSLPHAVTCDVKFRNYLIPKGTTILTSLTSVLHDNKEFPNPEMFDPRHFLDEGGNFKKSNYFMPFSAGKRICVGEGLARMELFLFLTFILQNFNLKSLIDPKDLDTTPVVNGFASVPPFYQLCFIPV

CYP2C19 [10] = target: T3, CYP2C19
CYP1A2 [11] = target: T2, CYP1A2
[12] = cited from earlier work
[13] = IC50 3A4, cDNA baculovirus-expressed enzyme, fluorescence substrate
[14] = IC50 CYP3A4, text, catalytic activity of CYP3A4

Papp of Ly (monolayer integrity marker) (Caco-2 cell monolayers; Caco-2): 2.0 ± 0.5 × 10^−6 cm/s
Compound: lucifer yellow [Ly, reference compound]

Compound: C[C@@H]1CC[C@@]2(OC1)O[C@H]1C[C@H]3[C@@H]4CC=C5C[C@@H](O[C@@H]6O[C@H](CO)[C@@H](O[C@@H]7O[C@@H](C)[C@H](O)[C@@H](O)[C@H]7O)[C@H](O)[C@H]6O[C@@H]6O[C@@H](C)[C@H](O)[C@@H](O)[C@H]6O)CC[C@]5(C)[C@H]4CC[C@]3(C)[C@H]1[C@@H]2C [Dioscin, dioscin]
% RD of dioscin depletion ([1]; SGF pH 1.2, 30 min): 16.7%
% RD of dioscin depletion ([1]; SGF pH 1.2, 60 min): 23.6%
% RD of dioscin depletion ([1]; SGF pH 1.2, 120 min): 28.3%
Degradation (depletion) in SGF [1]: 28.3%
Amount of dioscin in SGF ([1]; SGF pH 1.2, incubation 0 min): 45.0 ± 4.0 µg/mL
Amount of dioscin in SGF ([1]; SGF pH 1.2, incubation 30 min): 37.5 ± 1.2 µg/mL
Amount of dioscin in SGF ([1]; SGF pH 1.2, incubation 60 min): 34.4 ± 1.1 µg/mL
Amount of dioscin in SGF ([1]; SGF pH 1.2, incubation 120 min): 32.3 ± 1.0 µg/mL
Dioscin still detected after incubation in SGF ([1]; after 3-hour incubation in SGF as printed): 71.7%
% RD of dioscin depletion ([2]; SIF pH 6.8, 60 min): 4.3%
% RD of dioscin depletion ([2]; SIF pH 6.8, 120 min): 9.9%
% RD of dioscin depletion ([2]; SIF pH 6.8, 180 min): 11.6%
Amount of dioscin in SIF ([2]; SIF pH 6.8, incubation 0 min): 41.1 ± 0.8 µg/mL
Amount of dioscin in SIF ([2]; SIF pH 6.8, incubation 60 min): 39.3 ± 1.0 µg/mL
Amount of dioscin in SIF ([2]; SIF pH 6.8, incubation 120 min): 37.0 ± 1.3 µg/mL
Amount of dioscin in SIF ([2]; SIF pH 6.8, incubation 180 min): 36.3 ± 1.1 µg/mL
Papp A→B at 2 h (in vitro): 15 ± 1 ×10⁻⁶ cm/s
Papp B→A at 2 h (in vitro): 20 ± 3 ×10⁻⁶ cm/s
efflux ratio at 120 min (in vitro): 1.3
Efflux across Caco-2 monolayer (Caco-2 cell monolayers; Caco-2, words): no significant efflux
% Transport Absorptive direction (A–B) (Caco-2 cell monolayers): 7.5% and 7.5 ± 0.8%
% Transport Secretory direction (A–B) (Caco-2 cell monolayers): 11% and 11 ± 1%
Intestinal permeability across Caco-2 monolayers (rating) (Caco-2 cell monolayers): moderate
Compound detected after incubation in HLM ([3]; dioscin 50 μM): more than 50%
Stability in HLM (Phase I) [3]: relatively stable
Compound detected after incubation in S9 fractions ([4]; S9 fractions, dioscin 50 μM): more than 50%
Stability in S9 fraction (Phase II) ([4]; S9 fractions, words): relatively stable
Effect on CYP 2D6 (other CYP enzymes) (CYP2D6 [5]; words): not affected
Half-life after oral administration ([6]; oral): 1540 min
Oral bioavailability [6]: low oral bioavailability
IC50 (CYP2D6 [7]): > 50 µM
IC50 (CYP3A4; [13]): 33 ± 4 µM
IC50 (CYP3A4; [14]): 33.4 µM
IC50 (CYP1A2 [8]): > 50 µM
Effect on CYP 1A2 (other CYP enzymes) (CYP1A2 [8]; words): not affected
Effect on CYP 2C9 as printed in text (other CYP enzymes) (CYP2C19 [9]): not affected

Compound: C[C@@H]1CC[C@@]2(OC1)O[C@H]1C[C@H]3[C@@H]4CC=C5C[C@@H](O)CC[C@]5(C)[C@H]4CC[C@]3(C)[C@H]1[C@@H]2C [Diosgenin, diosgenin]
% RD of diosgenin depletion ([1]; SGF pH 1.2, 30 min): 3.62%
% RD of diosgenin depletion ([1]; SGF pH 1.2, 60 min): 8.31%
% RD of diosgenin depletion ([1]; SGF pH 1.2, 120 min): 8.59%
Degradation (depletion) in SGF [1]: < 10% and 8.5%
Amount of diosgenin in SGF ([1]; SGF pH 1.2, incubation 0 min): 52.4 ± 0.9 µg/mL
Amount of diosgenin in SGF ([1]; SGF pH 1.2, incubation 30 min): 50.5 ± 0.9 µg/mL
Amount of diosgenin in SGF ([1]; SGF pH 1.2, incubation 60 min): 48.0 ± 1.9 µg/mL
Amount of diosgenin in SGF ([1]; SGF pH 1.2, incubation 120 min): 47.9 ± 1.1 µg/mL
% RD of diosgenin depletion ([2]; SIF pH 6.8, 60 min): 1.28%
% RD of diosgenin depletion ([2]; SIF pH 6.8, 120 min): 4.21%
% RD of diosgenin depletion ([2]; SIF pH 6.8, 180 min): 4.80%
Degradation (disappearance) in SIF ([2]; SIF pH 6.8, after 3 hours of incubation): < 10% and 4.8%
Amount of diosgenin in SIF ([2]; SIF pH 6.8, incubation 0 min): 57.0 ± 1.0 µg/mL
Amount of diosgenin in SIF ([2]; SIF pH 6.8, incubation 60 min): 56.2 ± 1.9 µg/mL
Amount of diosgenin in SIF ([2]; SIF pH 6.8, incubation 120 min): 54.6 ± 2.0 µg/mL
Amount of diosgenin in SIF ([2]; SIF pH 6.8, incubation 180 min): 54.2 ± 3.2 µg/mL
Papp A→B at 2 h (in vitro): 9.6 ± 0.7 ×10⁻⁶ cm/s
Papp B→A at 2 h (in vitro): 48 ± 4 ×10⁻⁶ cm/s
efflux ratio at 120 min (in vitro): 5
% Transport Absorptive direction (A–B) (Caco-2 cell monolayers): 3.8% and 3.8 ± 0.8%
% Transport Secretory direction (A–B) (Caco-2 cell monolayers): 21% and 21 ± 1%
Intestinal permeability across Caco-2 monolayers (rating) (Caco-2 cell monolayers): moderate
Diosgenin levels in apical or basolateral side (Caco-2 cell monolayers; transport buffer (HBSS) without HPβCD, after 2-hour incubation): no diosgenin levels were detected
Stability in HLM (Phase I) [3]: stable
Intrinsic clearance in S9 fraction ([4]; S9 fraction, diosgenin 100 μM): 7 mL/min/kg
half-life at 100 μM ([4]; human, s9): 11.3 min
Effect on CYP 2D6 (other CYP enzymes) (CYP2D6 [5]): not affected
Effect on CYP 2C9 as printed in text (other CYP enzymes) (CYP2C19 [10]): not affected
Effect on CYP 1A2 (other CYP enzymes) (CYP1A2 [11]): not affected
Aqueous solubility [12]: poor aqueous solubility
IC50 (CYP2D6 [7]): > 50 µM
IC50 (CYP3A4; [13]): 17 ± 4 µM
IC50 (CYP3A4; [14]): 21.7 µM
IC50 (CYP1A2 [8]): > 50 µM
